These results are taken from patent US6884820B2, “5,6,7,8-tetrahydronaphthalen-2-yl-7-fluoroalkyl-heptatrienoic acid derivatives having serum glucose reducing activity” (Allergan, Inc., priority 2003, dated 2005).

Usually Ki stands for a measure of affinity in units of concentration, obtained from inhibition or displacement. As a reminder, the EC50 is the concentration giving half of the maximal effect. The low end stands for greater potency, the high end for weaker potency.

One assay addresses T1, RARα (Homo sapiens, UniProt P10276).
T1 sequence (P10276 1-462): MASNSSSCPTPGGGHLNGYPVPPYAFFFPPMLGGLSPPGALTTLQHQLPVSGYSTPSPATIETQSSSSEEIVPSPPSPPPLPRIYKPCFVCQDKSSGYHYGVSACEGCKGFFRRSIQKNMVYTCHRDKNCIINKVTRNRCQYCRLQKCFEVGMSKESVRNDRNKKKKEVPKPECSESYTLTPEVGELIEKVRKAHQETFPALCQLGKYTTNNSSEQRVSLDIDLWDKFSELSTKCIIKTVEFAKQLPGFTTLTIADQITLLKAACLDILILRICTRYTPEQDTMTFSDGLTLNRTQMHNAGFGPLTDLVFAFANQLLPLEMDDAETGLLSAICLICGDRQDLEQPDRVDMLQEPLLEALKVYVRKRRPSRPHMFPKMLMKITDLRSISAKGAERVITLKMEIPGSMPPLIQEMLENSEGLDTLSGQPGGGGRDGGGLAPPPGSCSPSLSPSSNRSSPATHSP
In words: ligand binding assay, RARα.

In a further assay the target is T2, RARγ (Homo sapiens, UniProt P13631).
T2 sequence (P13631 1-454): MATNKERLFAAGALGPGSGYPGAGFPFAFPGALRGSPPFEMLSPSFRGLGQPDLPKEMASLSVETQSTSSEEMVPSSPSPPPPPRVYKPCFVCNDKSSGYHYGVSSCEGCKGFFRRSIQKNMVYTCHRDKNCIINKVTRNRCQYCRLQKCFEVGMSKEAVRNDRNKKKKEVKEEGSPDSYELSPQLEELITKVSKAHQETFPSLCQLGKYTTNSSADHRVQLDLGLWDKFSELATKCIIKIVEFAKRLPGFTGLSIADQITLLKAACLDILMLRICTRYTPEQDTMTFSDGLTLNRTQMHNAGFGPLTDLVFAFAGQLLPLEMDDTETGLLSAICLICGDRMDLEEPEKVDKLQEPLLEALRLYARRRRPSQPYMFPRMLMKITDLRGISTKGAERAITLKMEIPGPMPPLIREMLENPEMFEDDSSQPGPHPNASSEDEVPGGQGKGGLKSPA
In words: ligand binding assay, RARγ.

The target in assay [1] is T3, RXRα (Homo sapiens, UniProt P19793).
T3 sequence (P19793 1-462): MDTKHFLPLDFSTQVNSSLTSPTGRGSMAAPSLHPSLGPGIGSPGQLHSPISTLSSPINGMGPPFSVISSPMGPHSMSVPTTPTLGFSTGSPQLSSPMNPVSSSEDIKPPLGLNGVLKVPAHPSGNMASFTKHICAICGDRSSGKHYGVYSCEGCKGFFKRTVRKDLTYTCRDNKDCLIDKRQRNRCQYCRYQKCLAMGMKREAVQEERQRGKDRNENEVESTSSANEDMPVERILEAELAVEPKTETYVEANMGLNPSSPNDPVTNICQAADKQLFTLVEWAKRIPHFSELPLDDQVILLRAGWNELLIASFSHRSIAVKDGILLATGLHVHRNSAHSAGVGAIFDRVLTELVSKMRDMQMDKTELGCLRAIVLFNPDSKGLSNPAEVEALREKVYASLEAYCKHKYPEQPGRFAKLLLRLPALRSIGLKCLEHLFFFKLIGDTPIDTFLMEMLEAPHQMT
The experiment in a line: ligand binding assay, RXRα.
Source text: (§1) The results of the ligand binding assay are expressed in Ki numbers.

The target of assay [2] is T4, RXRβ (Homo sapiens, UniProt P28702).
T4 sequence (P28702 1-533): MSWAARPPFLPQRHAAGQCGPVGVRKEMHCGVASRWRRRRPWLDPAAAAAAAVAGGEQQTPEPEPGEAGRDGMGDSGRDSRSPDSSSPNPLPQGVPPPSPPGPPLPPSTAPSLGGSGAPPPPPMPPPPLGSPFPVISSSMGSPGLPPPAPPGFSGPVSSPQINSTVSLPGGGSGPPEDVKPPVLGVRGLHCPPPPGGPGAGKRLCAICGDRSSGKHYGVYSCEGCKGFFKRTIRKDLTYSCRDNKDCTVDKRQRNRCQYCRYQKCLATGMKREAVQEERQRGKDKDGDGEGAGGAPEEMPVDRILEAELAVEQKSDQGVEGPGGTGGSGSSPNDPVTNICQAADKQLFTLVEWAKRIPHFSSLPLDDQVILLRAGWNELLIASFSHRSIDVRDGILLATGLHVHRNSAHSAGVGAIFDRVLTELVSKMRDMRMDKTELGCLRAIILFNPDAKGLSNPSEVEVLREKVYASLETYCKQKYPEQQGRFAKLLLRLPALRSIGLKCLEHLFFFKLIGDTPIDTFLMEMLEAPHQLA
In words: ligand binding assay, RXRβ.
Source text: as §1

Assay [3] concerns the target T3, RXRα. The experiment in a line: holoreceptor transactivation assay, RXRα. Particulars: for RXR α transactivation efficacy as a percentage compared to the standard compound: value in parentheses, relative to standard compound of U.S. Pat. No. 6,114,533.
Source text: (§2) The results obtained in this assay are expressed in EC50 numbers, as they are also in the chimeric receptor transactivation assay.
(§3) Efficacy in a transactivation assay is expressed as a percentage of the maximum potency attained by the compound compared to a standard which, in this case, is the compound named (2E, 4E, 1′S, 2′S)-3-methyl-5-[2′-methyl-2′-(5,5,8,8-tetramethyl-5,6,7,8-tetrahydro-naphthalen-2-yl)-cyclopropyl]-penta-2,4-dienoic acid.
(§4) Particularly, the transactivation data pertaining to activation of the RAR receptors were obtained in the chimeric assay, and the transactivation data pertaining to the activation of RXR receptors were obtained in the holoreceptor assay.
Assay [4] addresses T4, RXRβ. In words: holoreceptor transactivation assay, RXRβ. Particulars: for RXR β transactivation efficacy as a percentage compared to the standard compound: value in parentheses, relative to standard compound of U.S. Pat. No. 6,114,533.
Source text: as §2, §3, §4
The target of another assay is T5, RXRγ (Homo sapiens, UniProt P48443).
T5 sequence (P48443 1-463): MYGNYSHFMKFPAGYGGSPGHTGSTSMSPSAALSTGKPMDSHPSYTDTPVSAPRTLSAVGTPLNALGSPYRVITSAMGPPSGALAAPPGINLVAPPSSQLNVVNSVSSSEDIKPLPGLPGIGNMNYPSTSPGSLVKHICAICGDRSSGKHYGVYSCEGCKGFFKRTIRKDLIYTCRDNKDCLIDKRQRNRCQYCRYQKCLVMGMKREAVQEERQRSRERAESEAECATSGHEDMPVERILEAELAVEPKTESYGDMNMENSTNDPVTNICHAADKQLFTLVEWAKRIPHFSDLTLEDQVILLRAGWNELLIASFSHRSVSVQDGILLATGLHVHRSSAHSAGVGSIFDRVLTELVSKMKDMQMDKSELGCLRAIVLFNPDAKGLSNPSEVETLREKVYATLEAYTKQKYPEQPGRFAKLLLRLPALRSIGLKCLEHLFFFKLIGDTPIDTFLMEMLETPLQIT
The experiment in a line: holoreceptor transactivation assay, RXRγ. Particulars: for RXR γ transactivation efficacy as a percentage compared to the standard compound: value in parentheses, relative to standard compound of U.S. Pat. No. 6,114,533.

For the next assay, the target named is T6, RARβ (Homo sapiens, UniProt P10826).
T6 sequence (P10826 183-417 limits assumed): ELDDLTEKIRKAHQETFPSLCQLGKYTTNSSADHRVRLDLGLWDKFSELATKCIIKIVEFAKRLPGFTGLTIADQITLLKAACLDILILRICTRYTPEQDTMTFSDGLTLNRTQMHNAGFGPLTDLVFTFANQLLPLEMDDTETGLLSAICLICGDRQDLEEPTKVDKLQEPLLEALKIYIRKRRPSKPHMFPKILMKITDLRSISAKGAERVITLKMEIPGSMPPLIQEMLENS
The experiment in a line: chimeric receptor transactivation assay, RARβ. Particulars: for RAR β transactivation efficacy as a percentage compared to the standard compound: value in parentheses, relative to standard compound of U.S. Pat. No. 6,114,533.

Source text for RARα: as §1
Source text for RARβ: as §3, §4
Source text for RARγ: as §1
Source text for RXRγ: as §2, §3, §4

For the compound `CC(/C=C/C=C(c1cc2c(cc1O)C(C)(C)CCC2(C)C)C(F)(F)F)=C\C(=O)O` (stereo in doubt) [Compound 4, (2E,4E,6Z)-8,8,8-Trifluoro-7-(3-hydroxy-5,5,8,8-tetramethyl-5,6,7,8-tetrahydro-naphthalen-2-yl)-3-methyl-octa-2,4,6-trienoic acid], the inhibition constant (Ki) on RARα worked out at 2400 nM; at RARγ, 496 nM; on RXRα [1], 471 nM; at RXRβ [2], 2600 nM. The EC50 at RXRα [3] was 9 nM; at RXRβ [4], 67 nM; at RXRγ, 16 nM; at RARβ, more than 500 nM. Further, the “RXR α transactivation efficacy as a percentage compared to the standard compound” value at RXRα [3] is 65%. Moreover, the “RXR β transactivation efficacy as a percentage compared to the standard compound” value on RXRβ [4] is given as 54%. Also, at RXRγ, the “RXR γ transactivation efficacy as a percentage compared to the standard compound” value is 69%. For the same compound, the “RAR β transactivation efficacy as a percentage compared to the standard compound” value at RARβ is recorded as approximately 30%.
`CCOc1cc2c(cc1\C(=C/C=C/C(C)=C/C(=O)O)C(F)(F)F)C(C)(C)CCC2(C)C` [Compound 6, (2E,4E,6Z)-7-(3-Ethoxy-5,5,8,8-tetramethyl-5,6,7 8-tetrahydro-naphthalen-2-yl)-8,8,8-trifluoro-3-methyl-octa-2,4,6-trienoic acid]: the inhibition constant (Ki) on RARα is more than 10000 nM; at RARγ, more than 10000 nM; on RXRα [1], 14 nM; on RXRβ [2], 68 nM. Moreover, the 50% effective concentration (EC50) worked out at 10 nM at RXRα [3], 97 nM at RXRβ [4], 25 nM on RXRγ and 67 nM at RARβ. In addition, the “RXR α transactivation efficacy as a percentage compared to the standard compound” value at RXRα [3] turned out to be 17%. Moreover, the “RXR β transactivation efficacy as a percentage compared to the standard compound” value at RXRβ [4] is 30%. For the same compound, at RXRγ, the “RXR γ transactivation efficacy as a percentage compared to the standard compound” value is listed as 17%. In addition, the “RAR β transactivation efficacy as a percentage compared to the standard compound” value on RARβ is listed as 15%.
